# According to publication PMC8469169, “Design, Synthesis, and Cytotoxicity Assessment of [^64Cu]Cu-NOTA-Terpyridine Platinum Conjugate: A Novel Chemoradiotherapeutic Agent with Flexible Linker” (Nanomaterials, 2021):
# Several values for one entry are separate records, joined by “and”; a condition that tells them apart may be missing. Equal entries are not always repeated. Where two headings read alike, the source gives them in different places.
# What was measured:
# HCT116 cells [1] = assay: PrestoBlue (resazurin) cytotoxicity assay in HCT116 cells; assay type: cell-based, human
# Experimental: Human CRC cells HCT116 obtained from ATCC were cultured in Eagle’s minimal essential medium (EMEM), while Dulbecco’s modified Eagle medium (DMEM) was used for the normal fibroblast cell line GM05757 purchased from Coriell Institute. […] Cells were incubated at 37 °C in a humidified environment with 5% CO2.
# Cytotoxic activity was measured with the PrestoBlue method, which consists of a Resazurin-based metabolic assay. […] The final concentration of DMSO was less than 1%. Then, the media were removed, and the cells were washed with warm PBS and exposed with PrestoBlue reagent for an incubation time of 20 min. Changes in cell viability were recorded by fluorescence (λex = 570 nm; λem = 610 nm). […] The fluorescence values measured for blank groups were subtracted from those obtained from the treated and untreated cells.
# HCT116 cells [2] = conditions: cited from earlier work
# GM05757 cells [3] = assay: PrestoBlue (resazurin) cytotoxicity assay in GM05757 normal fibroblasts
# Experimental: Human CRC cells HCT116 obtained from ATCC were cultured in Eagle’s minimal essential medium (EMEM), while Dulbecco’s modified Eagle medium (DMEM) was used for the normal fibroblast cell line GM05757 purchased from Coriell Institute. These culture media were supplemented with 10% FBS, 26.2 mM sodium bicarbonate, 2 mM L-glutamine, and a mix of penicillin (100 UI/mL) and streptomycin (100 μg/mL). Cells were incubated at 37 °C in a humidified environment with 5% CO2.
# Cytotoxic activity was measured with the PrestoBlue method, which consists of a Resazurin-based metabolic assay. Briefly, HCT116 cells (2 × 10^4 cells per well) and GM05757 cells (5 × 10^3 cells per well) were seeded in a 96-well plate and incubated for 24 h. Then, the cells were treated with the Pt drugs at concentrations ranging from 0 to 500 µM for a subsequent 24, 48, and 72 h. […] The final concentration of DMSO was less than 1%. Then, the media were removed, and the cells were washed with warm PBS and exposed with PrestoBlue reagent for an incubation time of 20 min. Changes in cell viability were recorded by fluorescence (λex = 570 nm; λem = 610 nm). […] The fluorescence values measured for blank groups were subtracted from those obtained from the treated and untreated cells.
# [4] = Pt release at physiological pH by mass spectroscopy; assay type: physicochemical; conditions: physiological pH 7.2, after 72 h
# HCT116 cells [5] = assay: Subcellular (nucleus/cytoplasm) localization in HCT116 cells; assay type: cell-based, human; conditions: for Nucleus accumulation HCT116 versus GM05757 (fold reduction in GM05757) / Cytoplasmic distribution / Nucleus localization: high AMA; for Cytoplasmic distribution / Nucleus localization: HCT116
# Experimental: For extraction of HCT116 and GM05757 cell nucleus and cytoplasm, we followed a previously reported procedure [28, 31]. After treatment of HCT116 cells with 1MBq of [^64Cu]Cu-NOTA-C3-TP for 24, 48 and 72 h, CSK buffer (0.5% Triton X-100, 300 mM sucrose, 100 mM NaCl, 1 mM ethylenediaminetetraacetic acid (EDTA), 2 mM MgCl2, and 10 mM HEPES, pH 6.8) were employed for nuclear extraction. After 5 min centrifugation, supernatant was separated, and the retained activity in nuclear plates was counted by a gamma counter (HIDEX Automatic Gamma Counter 2014).
# [6] = Plasma stability by radio-TLC; assay type: in vitro ADME, mouse; conditions: room temperature; radio-iTLC; free 64Cu or fragments
# Experimental: Plasma stability of the compound was assessed by incubating [^64Cu]Cu-NOTA-C3-TP in mouse plasma for 72 h at room temperature. Radio-TLC on C18 plates conducted on 0.1 M sodium citrate buffer at pH 5.5, as a developing solvent, was used to detect free ^64Cu. [^64Cu]Cu-NOTA-C3-TP and free [^64Cu]Cu(OAc)2 were employed as control standards.
# HCT116 cells [7] = assay: Cellular uptake and internalization in HCT116 cells (gamma counting); assay type: cell-based, human
# Experimental: (§1) HCT116 cells (2 × 10^5 per well) were seeded in 12-well plates for 48 h in EMEM medium completed with 10% FBS at 37 °C until 80% confluence. Cells were washed twice with PBS, and then [^64Cu]Cu-NOTA-C3-TP (0.1 MBq, 50 µL) in EMEM completed medium was added and incubated from 15 min to 72 h to measure cellular uptake and internalization. At each time point, the radioactive media was removed, and cells were washed thrice with cold PBS. To measure the net cellular uptake or internalized fraction, surface-bound Pt drugs were removed by treating with 50 mM glycine in PBS pH 2.2 for 10 min, which was followed by a second cold PBS wash. Then, cells were harvested through trypsinization and counted with a hemocytometer. The radioactivity was measured in a gamma counter (HIDEX Automatic Gamma Counter 2014). The results were expressed as a percentage of added dose (AD) retained per 10^6 cells (%AD/10^6 cells). Parallel experiments were carried out at 4 °C to assess internalization inhibition and surface-bound fraction. For efflux studies, HCT116 cells were incubated for 1 h with 0.1 MBq of [^64Cu]Cu-NOTA-C3-TP. Then, the cells were washed with PBS and fresh culture medium was added. After 0 to 72 h, the medium was removed, and the cells were washed thrice with PBS. Finally, the cells were harvested, and radioactivity was counted with the gamma counter. The results were expressed as percentage of total activity retained by 10^6 cells relative to baseline at 0 min.
# GM05757 cells [8] = conditions: high AMA
# Experimental: For extraction of HCT116 and GM05757 cell nucleus and cytoplasm, we followed a previously reported procedure. After treatment of HCT116 cells with 1MBq of [^64Cu]Cu-NOTA-C3-TP for 24, 48 and 72 h, CSK buffer (0.5% Triton X-100, 300 mM sucrose, 100 mM NaCl, 1 mM ethylenediaminetetraacetic acid (EDTA), 2 mM MgCl2, and 10 mM HEPES, pH 6.8) were employed for nuclear extraction. After 5 min centrifugation, supernatant was separated, and the retained activity in nuclear plates was counted by a gamma counter (HIDEX Automatic Gamma Counter 2014).
# HCT116 cells [9] = assay: Efflux assay in HCT116 cells; assay type: cell-based, human
# Experimental: as §1, with “For efflux studies, HCT116 cells were incubated for 1 h with 0.1 MBq of [^64Cu]Cu-NOTA-C3-TP. Then, the cells were washed with PBS and fresh culture medium was added. After 0 to 72 h, the medium was removed, and the cells were washed thrice with PBS.” left out
# For efflux studies, we followed the standard protocol of Fournier et al.. […] The activity retained by the cells was measured from 0 to 72 h post administration.
# [10] = 24 h incubation, read-out: EC50 HCT116 24 h
# [11] = 48 h incubation, read-out: EC50 HCT116 48 h
# [12] = 72 h incubation, read-out: EC50 HCT116 72 h
# [13] = read-out: EC50 GM05757 24 h, 24 h incubation
# [14] = read-out: EC50 GM05757 48 h, 48 h incubation
# [15] = read-out: EC50 GM05757 72 h, 72 h incubation
# [16] = HCT116, 24 h, low AMA 0.8 to 4.0 MBq/nmol
# [17] = HCT116, 37 °C, 24 h, % of total activity/10^6 cells
compound,measurement,setting,value
"N.N.[Cl][Pt][Cl] [Cisplatin, reference compound]",EC50,HCT116 cells [1]; [10],31 ± 2 µM
same,EC50,HCT116 cells [1]; [11],42 ± 8 µM
same,EC50,HCT116 cells [1]; [12],23 ± 3 µM
same,Cellular accumulation,HCT116 cells [2],5 ng Pt/10^6 HCT116 cells
same,EC50,GM05757 cells [3]; [13],88 ± 4 µM
same,EC50,GM05757 cells [3]; [14],84 ± 2 µM
same,EC50,GM05757 cells [3]; [15],77 ± 1 µM
F[P-](F)(F)(F)(F)F.O=C(O)CN1CCN(CCCOc2cc3[n+]4c(c2)-c2cccc[n+]2[Pt-2]4([Cl])[n+]2ccccc2-3)CCN(CC(=O)O)CC1 [NOTA-C3-TP],EC50,HCT116 cells [1]; [10],> 700 µM
same,EC50,HCT116 cells [1]; [11],63 ± 2 µM
same,EC50,HCT116 cells [1]; [12],24 ± 1 µM
same,EC50,GM05757 cells [3]; [13],504 ± 4 µM
same,EC50,GM05757 cells [3]; [14],202 ± 5 µM
same,EC50,GM05757 cells [3]; [15],51 ± 3 µM
"O=C1[O][Pt]2([NH][C@@H]3CCCC[C@H]3[NH]2)[O]C1=O [Oxaliplatin, reference compound]",EC50,HCT116 cells [1]; [10],> 200 µM
same,EC50,HCT116 cells [1]; [11],64 ± 1 µM
same,EC50,HCT116 cells [1]; [12],16 ± 4 µM
same,EC50,GM05757 cells [3]; [13],> 200 µM
same,EC50,GM05757 cells [3]; [14],165 ± 9 µM
same,EC50,GM05757 cells [3]; [15],65 ± 3 µM
O=C([O-])CN1CCN(CCCOc2cc3[n+]4c(c2)-c2cccc[n+]2[Pt-2]4([Cl])[n+]2ccccc2-3)CCN(CC(=O)[O-])CC1.[64Cu+2] [[^64Cu]Cu-NOTA-C3-TP],Pt released,[4],not seen
same,Viability of HCT116 cells,"HCT116 cells [1]; 5 MBq, low AMA, 24 h incubation",22%
same,Viability of HCT116 cells,"HCT116 cells [1]; 8 MBq, low AMA, 24 h incubation",17%
same,EC50,"HCT116 cells [1]; 24 h, high AMA ≈120 MBq/nmol, read-out: EC50 HCT116 24 h",0.017 ± 0.004 µM
same,EC50,"HCT116 cells [1]; 24 h, low AMA 0.8 to 4.0 MBq/nmol, read-out: EC50 HCT116 24 h",59 ± 3 µM
same,EC50,"HCT116 cells [1]; 48 h, high AMA ≈120 MBq/nmol, read-out: EC50 HCT116 48 h",0.012 ± 0.006 µM
same,EC50,"HCT116 cells [1]; 48 h, low AMA 0.8 to 4.0 MBq/nmol, read-out: EC50 HCT116 48 h",9 ± 2 µM
same,EC50,"HCT116 cells [1]; 72 h, high AMA ≈120 MBq/nmol, read-out: EC50 HCT116 72 h",0.006 ± 0.002 µM
same,EC50,"HCT116 cells [1]; 72 h, low AMA 0.8 to 4.0 MBq/nmol, read-out: EC50 HCT116 72 h",< 5 µM
same,Fold more activity relative to [NatCu]Cu-NOTA-C3-TP and NOTA-C3-TP,"HCT116 cells [1]; HCT116, 48 and 72 h, low AMA",5–66 fold
same,Improvement of cytotoxicity with respect to [NatCu]Cu-NOTA-C3-TP,"HCT116 cells [1]; HCT116, 24 h, high AMA ≈120 MBq/nmol","~17,000 fold"
same,Times more active than NOTA-C3-TP,HCT116 cells [1]; [16],12 times
same,Times more active than [NatCu]Cu-NOTA-C3-TP,HCT116 cells [1]; [16],5 times
same,Times more active than oxaliplatin,HCT116 cells [1]; [16],3.4 times
same,Improvement of cytotoxicity with respect to [NatCu]Cu-NOTA-C3-TP,"HCT116 cells [1]; HCT116, 72 h, high AMA ≈120 MBq/nmol","> 55,000 fold and 55,000 fold"
same,Selectivity toward cancer cells,"HCT116 cells [1]; HCT116 vs GM05757, 24 h",3.9
same,Times higher efficiency toward HCT116 relative to GM05757,"HCT116 cells [1]; high AMA, 24 to 72 h",2–4 times
same,Increase in HCT116 nucleus uptake relative to [64Cu]Cu(OAc)2,HCT116 cells [5]; 24 h,2.8 fold
same,Nucleus accumulation HCT116 versus GM05757 (fold reduction in GM05757),HCT116 cells [5]; 24 h,5.7 fold
same,Increase in HCT116 nucleus uptake relative to [64Cu]Cu(OAc)2,HCT116 cells [5]; 48 h,4.9 fold
same,Nucleus accumulation HCT116 versus GM05757 (fold reduction in GM05757),HCT116 cells [5]; 48 h,4.4 fold
same,Increase in HCT116 nucleus uptake relative to [64Cu]Cu(OAc)2,HCT116 cells [5]; 72 h,3.7 fold
same,Nucleus accumulation HCT116 versus GM05757 (fold reduction in GM05757),HCT116 cells [5]; 72 h,4.1 fold
same,Cytoplasmic distribution,HCT116 cells [5]; 24 h,76 ± 7.3%
same,Nucleus localization,HCT116 cells [5]; 24 h,8.6 ± 3% and 8.6%
same,Cytoplasmic distribution,HCT116 cells [5]; 48 h,61 ± 11%
same,Nucleus localization,HCT116 cells [5]; 48 h,13.4 ± 4%
same,Cytoplasmic distribution,HCT116 cells [5]; 72 h,61 ± 8.3%
same,Nucleus localization,HCT116 cells [5]; 72 h,12.3 ± 1%
same,Stability in mouse plasma,[6],stable up to 72 h
same,Internalization in HCT116 fold higher than in GM05757,"HCT116 cells [7]; 24 h, 37 °C",3.1 fold
same,Internalization in HCT116 fold higher than in GM05757,"HCT116 cells [7]; 48 h, 37 °C",1.8 fold
same,Internalization in HCT116 fold higher than in GM05757,"HCT116 cells [7]; 72 h, 37 °C",2.1 fold
same,"Uptake at 4 °C (passive accumulation), share of conjugate incubated","HCT116 cells [7]; HCT116, 4 °C",less than 1%
same,Cell-associated fraction higher than internalized fraction,"HCT116 cells [7]; HCT116, 37 °C",2 fold
same,Incubation time of maximum accumulation,"HCT116 cells [7]; HCT116, 37 °C",24 h
same,Internalized fraction,"HCT116 cells [7]; HCT116, 37 °C, 15 min incubation, % of total activity/10^6 cells",0.04 ± 0.02%
same,Cell-associated fraction (maximum),HCT116 cells [7]; [17],40.0 ± 2.8%
same,Internalized fraction (maximum),HCT116 cells [7]; [17],18.7 ± 2.8%
same,Cellular accumulation times larger than cisplatin,"HCT116 cells [7]; HCT116, 24 h",14.4 times
same,Cellular accumulation (maximum),"HCT116 cells [7]; HCT116, 24 h incubation, low AMA",72 ng of Pt/10^6 HCT116 cells
same,Uptake at 4 °C lower than at 37 °C,"HCT116 cells [7]; HCT116, passive accumulation",~ 30 fold
same,Cytotoxic activity on GM05757 lower than on HCT116 (fold),"GM05757 cells [3]; low AMA, 24 h",at least 3.4 fold
same,EC50,"GM05757 cells [3]; read-out: EC50 GM05757 24 h, 24 h, high AMA ≈120 MBq/nmol",> 0.066 µM
same,EC50,"GM05757 cells [3]; read-out: EC50 GM05757 24 h, 24 h, low AMA 0.8 to 4.0 MBq/nmol",> 200 µM
same,EC50,"GM05757 cells [3]; read-out: EC50 GM05757 48 h, 48 h, high AMA ≈120 MBq/nmol",0.025 ± 0.005 µM
same,EC50,"GM05757 cells [3]; read-out: EC50 GM05757 72 h, 72 h, high AMA ≈120 MBq/nmol",0.019 ± 0.004 µM
same,EC50,"GM05757 cells [3]; read-out: EC50 GM05757 72 h, 72 h, low AMA 0.8 to 4.0 MBq/nmol",12 ± 2 µM
same,Cytoplasmic distribution,GM05757 cells [8]; 24 h,46 ± 6%
same,Nucleus localization,GM05757 cells [8]; 24 h,1.5 ± 0.2%
same,Cytoplasmic distribution,GM05757 cells [8]; 48 h,53 ± 6.5%
same,Nucleus localization,GM05757 cells [8]; 48 h,3 ± 0.4%
same,Cytoplasmic distribution,GM05757 cells [8]; 72 h,58.5 ± 8.3%
same,Nucleus localization,GM05757 cells [8]; 72 h,3 ± 0.1%
same,Conjugate retained by cells,HCT116 cells [9]; 72 h post administration,more than 40%
same,Conjugate eliminated (efflux),HCT116 cells [9]; first 6 h after 1 h incubation,About 42%
